Active and inactive are the calls of the source. How the calls were made is not given here.
System: CCRIS mutagenicity, Ames/micronucleus/aberration tests
Assay: CCRIS mutagenicity studies
[1] = Test System: AMES SALMONELLA TYPHIMURIUM, Strain/Indicator: TA97, Metabolic Activation: NONE, Method: PREINCUBATION
[2] = Test System: AMES SALMONELLA TYPHIMURIUM, Strain/Indicator: TA97, Metabolic Activation: RAT, LIVER, S-9, AROCLOR 1254 (10%), Method: PREINCUBATION
[3] = Test System: AMES SALMONELLA TYPHIMURIUM, Strain/Indicator: TA97, Metabolic Activation: RAT, LIVER, S-9, AROCLOR 1254 (30%), Method: PREINCUBATION
[4] = Test System: AMES SALMONELLA TYPHIMURIUM, Strain/Indicator: TA98, Metabolic Activation: HAMSTER, LIVER, S-9, AROCLOR 1254 (10%), Method: PREINCUBATION
[5] = Test System: AMES SALMONELLA TYPHIMURIUM, Strain/Indicator: TA98, Metabolic Activation: NONE, Method: PREINCUBATION
[6] = Test System: AMES SALMONELLA TYPHIMURIUM, Strain/Indicator: TA98, Metabolic Activation: RAT, LIVER, S-9, AROCLOR 1254 (10%), Method: PREINCUBATION
[7] = Test System: AMES SALMONELLA TYPHIMURIUM, Strain/Indicator: TA100, Metabolic Activation: HAMSTER, LIVER, S-9, AROCLOR 1254 (10%), Method: PREINCUBATION
[8] = Test System: AMES SALMONELLA TYPHIMURIUM, Strain/Indicator: TA100, Metabolic Activation: NONE, Method: PREINCUBATION
[9] = Test System: AMES SALMONELLA TYPHIMURIUM, Strain/Indicator: TA1535, Metabolic Activation: HAMSTER, LIVER, S-9, AROCLOR 1254 (10%), Method: PREINCUBATION
[10] = Test System: AMES SALMONELLA TYPHIMURIUM, Strain/Indicator: TA1535, Metabolic Activation: NONE, Method: PREINCUBATION
[11] = Test System: AMES SALMONELLA TYPHIMURIUM, Strain/Indicator: TA1535, Metabolic Activation: RAT, LIVER, S-9, AROCLOR 1254 (10%), Method: PREINCUBATION

## CCC(C)Nc1ccc(NC(C)CC)cc1 (stereo unspecified)
End Point: IN VITRO CHROMOSOMAL ABERRATIONS, Test System: CHINESE HAMSTER LUNG CELLS (CHL), Metabolic Activation: RAT, LIVER, S-9, KC-400
  mutagenic call: inactive; negative
End Point: IN VITRO CHROMOSOMAL ABERRATIONS, Test System: CHINESE HAMSTER OVARY CELLS (CHO), Metabolic Activation: NONE
  mutagenic call: inactive; negative
End Point: IN VITRO CHROMOSOMAL ABERRATIONS, Test System: CHINESE HAMSTER OVARY CELLS (CHO), Metabolic Activation: RAT, LIVER, S-9, AROCLOR 1254
  mutagenic call: inactive; negative
Test System: AMES SALMONELLA TYPHIMURIUM, Strain/Indicator: TA97, Metabolic Activation: HAMSTER, LIVER, S-9, AROCLOR 1254 (10%), Method: PREINCUBATION
  mutagenic call: inactive; negative
Test System: AMES SALMONELLA TYPHIMURIUM, Strain/Indicator: TA97, Metabolic Activation: HAMSTER, LIVER, S-9, AROCLOR 1254 (30%), Method: PREINCUBATION
  mutagenic call: inactive; negative
[1]
  mutagenic call: inactive; negative
[2]
  mutagenic call: inactive; negative
[3]
  mutagenic call: inactive; negative
[4]
  mutagenic call: inactive; negative
Test System: AMES SALMONELLA TYPHIMURIUM, Strain/Indicator: TA98, Metabolic Activation: HAMSTER, LIVER, S-9, AROCLOR 1254 (30%), Method: PREINCUBATION
  mutagenic call: inactive; negative
[5]
  mutagenic call: inactive; negative
[6]
  mutagenic call: inactive; negative
Test System: AMES SALMONELLA TYPHIMURIUM, Strain/Indicator: TA98, Metabolic Activation: RAT, LIVER, S-9, AROCLOR 1254 (30%), Method: PREINCUBATION
  mutagenic call: inactive; negative
Test System: AMES SALMONELLA TYPHIMURIUM, Strain/Indicator: TA100, Metabolic Activation: HAMSTER, LIVER, S-9, AROCLOR 1254 (5%), Method: PREINCUBATION
  mutagenic call: inactive; negative
[7]
  mutagenic call: inactive; negative
Test System: AMES SALMONELLA TYPHIMURIUM, Strain/Indicator: TA100, Metabolic Activation: HAMSTER, LIVER, S-9, AROCLOR 1254 (30%), Method: PREINCUBATION
  mutagenic call: inactive; negative
[8]
  mutagenic call: inactive; negative
Test System: AMES SALMONELLA TYPHIMURIUM, Strain/Indicator: TA100, Metabolic Activation: RAT, LIVER, S-9, AROCLOR 1254 (5%), Method: PREINCUBATION
  mutagenic call: inactive; negative
Test System: AMES SALMONELLA TYPHIMURIUM, Strain/Indicator: TA100, Metabolic Activation: RAT, LIVER, S-9, AROCLOR 1254 (30%), Method: PREINCUBATION
  mutagenic call: inactive; negative
Test System: AMES SALMONELLA TYPHIMURIUM, Strain/Indicator: TA100, Metabolic Activation: RAT,LIVER, S-9, AROCLOR 1254 (10%), Method: PREINCUBATION
  mutagenic call: inactive; negative
[9]
  mutagenic call: inactive; negative
Test System: AMES SALMONELLA TYPHIMURIUM, Strain/Indicator: TA1535, Metabolic Activation: HAMSTER, LIVER, S-9, AROCLOR 1254 (30%), Method: PREINCUBATION
  mutagenic call: inactive; negative
[10]
  mutagenic call: inactive; negative
[11]
  mutagenic call: inactive; negative
Test System: AMES SALMONELLA TYPHIMURIUM, Strain/Indicator: TA1535, Metabolic Activation: RAT, LIVER, S-9, AROCLOR 1254 (30%), Method: PREINCUBATION
  mutagenic call: inactive; negative

## Nc1ccccc1S(=O)(=O)O
Test System: AMES SALMONELLA TYPHIMURIUM, Strain/Indicator: TA97, Metabolic Activation: HAMSTER, LIVER, S-9, AROCLOR 1254 (10 OR 30%), Method: PREINCUBATION
  mutagenic call: inactive; negative
[1]
  mutagenic call: inactive; negative
[2]
  mutagenic call: inactive; negative
[3]
  mutagenic call: inactive; negative
Test System: AMES SALMONELLA TYPHIMURIUM, Strain/Indicator: TA98, Metabolic Activation: HAMSTER, LIVER, S-9, AROCLOR 1254 (10 OR 30%), Method: PREINCUBATION
  mutagenic call: inactive; negative
Test System: AMES SALMONELLA TYPHIMURIUM, Strain/Indicator: TA98, Metabolic Activation: RAT, LIVER, S-9, AROCLOR 1254 (10 OR 30%), Method: PREINCUBATION
  mutagenic call: inactive; negative
Test System: AMES SALMONELLA TYPHIMURIUM, Strain/Indicator: TA100, Metabolic Activation: HAMSTER, LIVER, S-9, AROCLOR 1254 (10 OR 30%), Method: PREINCUBATION
  mutagenic call: inactive; negative
[8]
  mutagenic call: inactive; negative
Test System: AMES SALMONELLA TYPHIMURIUM, Strain/Indicator: TA100, Metabolic Activation: RAT, LIVER, S-9, AROCLOR 1254 (10 OR 30%), Method: PREINCUBATION
  mutagenic call: inactive; negative
Test System: AMES SALMONELLA TYPHIMURIUM, Strain/Indicator: TA1535, Metabolic Activation: HAMSTER, LIVER, S-9, AROCLOR 1254 (10 OR 30%), Method: PREINCUBATION
  mutagenic call: inactive; negative
[10]
  mutagenic call: inactive; negative
Test System: AMES SALMONELLA TYPHIMURIUM, Strain/Indicator: TA1535, Metabolic Activation: RAT, LIVER, S-9, AROCLOR 1254 (10 OR 30%), Method: PREINCUBATION
  mutagenic call: inactive; negative

## C[CH2][Pb]([Cl])([CH2]C)[CH2]C
[4]
  mutagenic call: inactive; negative
[5]
  mutagenic call: inactive; negative
[6]
  mutagenic call: inactive; negative
[7]
  mutagenic call: inactive; negative
[8]
  mutagenic call: inactive; negative
Test System: AMES SALMONELLA TYPHIMURIUM, Strain/Indicator: TA100, Metabolic Activation: RAT, LIVER, S-9, AROCLOR 1254 (10%), Method: PREINCUBATION
  mutagenic call: inactive; negative
[9]
  mutagenic call: inactive; negative
[10]
  mutagenic call: inactive; negative
[11]
  mutagenic call: inactive; negative
Test System: AMES SALMONELLA TYPHIMURIUM, Strain/Indicator: TA1537, Metabolic Activation: HAMSTER, LIVER, S-9, AROCLOR 1254 (10%), Method: PREINCUBATION
  mutagenic call: inactive; negative
Test System: AMES SALMONELLA TYPHIMURIUM, Strain/Indicator: TA1537, Metabolic Activation: NONE, Method: PREINCUBATION
  mutagenic call: inactive; negative
Test System: AMES SALMONELLA TYPHIMURIUM, Strain/Indicator: TA1537, Metabolic Activation: RAT, LIVER, S-9, AROCLOR 1254 (10%), Method: PREINCUBATION
  mutagenic call: inactive; negative

## NC(=O)N(CCF)N=O
Test System: E. COLI B, Strain/Indicator: H/R30R, Metabolic Activation: NONE
  mutagenic call: active; positive
Test System: E. COLI B, Strain/Indicator: HS30R, Metabolic Activation: NONE
  mutagenic call: active; positive

## CNc1c(C)cc2ncccc2c1N
[5]
  mutagenic call: inactive; negative
Test System: AMES SALMONELLA TYPHIMURIUM, Strain/Indicator: TA98, Metabolic Activation: RAT, LIVER, S-9, AROCLOR 1254, Method: PREINCUBATION
  mutagenic call: inactive; negative
[8]
  mutagenic call: inactive; negative
Test System: AMES SALMONELLA TYPHIMURIUM, Strain/Indicator: TA100, Metabolic Activation: RAT, LIVER, S-9, AROCLOR 1254, Method: PREINCUBATION
  mutagenic call: inactive; negative

## CNc1ccc(N=Nc2ccc(NC)cc2)cc1
Test System: AMES SALMONELLA TYPHIMURIUM, Strain/Indicator: TA98, Metabolic Activation: RAT, LIVER, S-9, POLYCHLORINATED BIPHENYLS, Method: PREINCUBATION
  mutagenic call: inactive; negative
Test System: AMES SALMONELLA TYPHIMURIUM, Strain/Indicator: TA100, Metabolic Activation: RAT, LIVER, S-9, POLYCHLORINATED BIPHENYLS, Method: PREINCUBATION
  mutagenic call: inactive; negative

## [Cu+2].[O-]c1cccc2cccnc12.[O-]c1cccc2cccnc12
Test System: AMES SALMONELLA TYPHIMURIUM, Strain/Indicator: TA98, Metabolic Activation: NONE, Method: STANDARD PLATE
  mutagenic call: inactive; negative
Test System: AMES SALMONELLA TYPHIMURIUM, Strain/Indicator: TA98, Metabolic Activation: RAT LIVER S-9, AROCLOR 1254, Method: STANDARD PLATE
  mutagenic call: inactive; negative
Test System: AMES SALMONELLA TYPHIMURIUM, Strain/Indicator: TA100, Metabolic Activation: NONE, Method: STANDARD PLATE
  mutagenic call: inactive; negative
Test System: AMES SALMONELLA TYPHIMURIUM, Strain/Indicator: TA100, Metabolic Activation: RAT LIVER S-9, AROCLOR 1254, Method: STANDARD PLATE
  mutagenic call: active; positive
